Data: patent US5206382A, “Indole derivatives, pharmaceutical compositions and methods of treating neurological and psychiatric disorders” (Fidia Georgetown Institute for the Neurosciences, priority 1991, dated 1993)

Legend:
Sprague Dawley rats = test: Elevated X maze test; type: in vivo, Sprague Dawley rat; conditions: for Entries in open arms, test after 10 min injection / Entries in open arms, test after 20 min injection / Entries in open arms, test after 30 min injection: 20 mg/kg i.v., rats; for behavioral output of rats in the elevated X maze test: in words
Description: The elevated X maze is a behavioral test to detect anxiolytic drugs in rodents. […] The plus-maze consists of two open arms (43×8 cm) and two similarly sized enclosed arms with 9 cm high walls, arranged so that the arms of the same type are opposite each other. There is a central square of 8 cm. The apparatus is elevated to a height of 10 cm and each arm is divided into 3 squares.
Sprague Dawley rats weighing 200-250 gr. were housed in a room with a 12 hour light: 12 hour dark cycle and were allowed free access to food and water. After an i.v. injection of different indole derivatives, the rats were kept separated for 10, 20 or 30 minutes before testing. The testing period commenced when each animal was placed onto the central square of the maze. The number of entries in each arm was then recorded for 5 minutes. The maze was cleaned with water after each trial. The number of entries in the open arms provided a measure of anxiolytic activity of the drugs.

[1] = target: T1, ^3 H-ZOLPIDEM binding (crude synaptic membrane) (Rattus norvegicus, UniProt P18508+P62813); test: ^3 H-ZOLPIDEM binding, crude synaptic membranes; set-up: species or system Sprague Dawley rat; conditions: 2 nM ^3 H-ZOLPIDEM, rat cerebellum membranes
T1 construct: from tissue; host or cells: crude synaptic membranes of Sprague Dawley rat cerebellum
T1 sequence (P62813 28-455): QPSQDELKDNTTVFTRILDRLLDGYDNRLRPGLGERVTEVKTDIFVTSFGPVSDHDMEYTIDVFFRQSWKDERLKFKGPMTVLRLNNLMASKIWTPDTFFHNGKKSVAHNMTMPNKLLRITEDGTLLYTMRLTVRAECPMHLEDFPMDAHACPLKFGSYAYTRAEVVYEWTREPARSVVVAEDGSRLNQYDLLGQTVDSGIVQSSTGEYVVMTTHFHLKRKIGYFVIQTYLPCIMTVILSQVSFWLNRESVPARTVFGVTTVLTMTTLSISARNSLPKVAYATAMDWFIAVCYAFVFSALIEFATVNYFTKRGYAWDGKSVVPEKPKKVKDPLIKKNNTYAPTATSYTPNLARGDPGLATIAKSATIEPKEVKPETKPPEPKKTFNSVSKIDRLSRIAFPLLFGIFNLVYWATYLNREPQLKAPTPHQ
T1 sequence (P18508 39-466): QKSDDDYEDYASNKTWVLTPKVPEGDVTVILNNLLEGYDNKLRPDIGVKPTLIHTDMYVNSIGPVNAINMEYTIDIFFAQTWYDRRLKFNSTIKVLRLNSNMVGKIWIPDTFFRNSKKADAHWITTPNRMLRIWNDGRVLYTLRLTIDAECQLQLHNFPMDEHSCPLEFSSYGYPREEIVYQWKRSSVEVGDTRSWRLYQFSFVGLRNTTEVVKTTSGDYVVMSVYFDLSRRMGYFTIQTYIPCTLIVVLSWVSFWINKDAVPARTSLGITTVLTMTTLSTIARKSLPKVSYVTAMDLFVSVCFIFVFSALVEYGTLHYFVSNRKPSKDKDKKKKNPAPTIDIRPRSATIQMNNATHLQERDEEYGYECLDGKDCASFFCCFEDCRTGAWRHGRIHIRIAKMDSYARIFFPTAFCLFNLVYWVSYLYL
Description: (§1) Crude Synaptic Membrane Preparation: Sprague Dawley rats (200-250 gr.) were killed by decapitation. The cerebella were removed and incubated for 20 minutes in ice cold double distilled water after homogenization with Polytron. The homogenate was centrifuged at 18,000 xg at 4° C. for 10 minutes. The pellet was suspended in ice-cold buffer 50 mM Na/KPO4(pH 7.4) and centrifuged at 18,000 xg at 4° C. for 10 minutes. After two other centrifugations, the membranes were suspended in 5 ml of buffer and the proteins were measured.
(§2) The membranes were diluted with 50 mM Na/KPO4 buffer (pH 7.4) to a concentration of 150 μg of protein/ml, and 150 μl aliquots of the suspension were incubated with 50 μl of the different ligands to be tested: ^3 H-ZOLPIDEM(2 nM), ^3 H-FLUMAZENIL (2 nM), ^3 H-GABA(10 nM), ^3 H-MK 801(5 nM), ^3 H-KETANSERIN(1 nM), ^3 H-GLYCINE(20 nM), ^3 H-SPIPERONE(1 nM), ^3 H-AMPA(10 nM), ^3 H-3-PPP(1 nM), and ^3 H-NALOXONE(1 nM). Non-specific binding was assessed by displacing with 10 to 1000/μM of cold ligand. The different indole derivatives were added in a volume of 50 μl in a concentration varying from 10^-9 to 10^-3 M. The results are reported in Table I hereinbelow.

[2] = target: T2, BZD binding site located on the GABAA receptor (Rattus norvegicus, UniProt P18508+P62813); test: ^3 H-FLUMAZENIL binding, crude synaptic membranes; set-up: species or system Sprague Dawley rat; conditions: 2 nM ^3 H-FLUMAZENIL, rat cerebellum membranes
T2 construct: The cerebella were removed and incubated for 20 minutes in ice cold double distilled water; from tissue; host or cells: crude synaptic membranes of Sprague Dawley rat cerebellum
T2 sequence (P62813 28-455): as the sequence (P62813 28-455) above
T2 sequence (P18508 39-466): as the sequence (P18508 39-466) above
Description: as §1
The membranes were diluted with 50 mM Na/KPO4 buffer (pH 7.4) to a concentration of 150 μg of protein/ml, and 150 μl aliquots of the suspension were incubated with 50 μl of the different ligands to be tested: ^3 H-ZOLPIDEM(2 nM), ^3 H-FLUMAZENIL (2 nM), ^3 H-GABA(10 nM), ^3 H-MK 801(5 nM), ^3 H-KETANSERIN(1 nM), ^3 H-GLYCINE(20 nM), ^3 H-SPIPERONE(1 nM), ^3 H-AMPA(10 nM), ^3 H-3-PPP(1 nM), and ^3 H-NALOXONE(1 nM). Non-specific binding was assessed by displacing with 10 to 1000/μM of cold ligand.

[3] = target: T3, MBR (mitochondrial benzodiazepine recognition site) (Rattus norvegicus, UniProt P16257); test: Displacement of ^3 H-PK11195 from mitochondrial BZD recognition site (MBR); type: binding, Sprague Dawley rat; conditions: for IC50: displacement of 1 nM ^3 H-PK11195, rat mitochondria, range in parentheses; for ^3 H-PK11195 / ^3 H-RO5-4864: ratio of the two IC50 values
T3 construct: Brain and adrenal glands were removed and homogenized with Polytron; from tissue; host or cells: mitochondrial fraction of Sprague Dawley rat brain and adrenal glands
Description: (§3) Mitochondrial Preparation: Sprague Dawley rats (200-250 gr.) were killed by decapitation. Brain and adrenal glands were removed and homogenized with Polytron for 15 minutes in ice cold buffer (10 mM Na/KPO4, 0.32M sucrose, pH 7.4). The homogenate was centrifuged for 15 minutes at 6,500 xg at 4° C. The resulting supernatant was centrifuged for 15 minutes at […] at 4° C. The pellet was suspended in buffer (20 times) by gentle homogenization and centrifuged at 10,000 xg at 4° C. for 15 minutes. The washed mitochondrial pellet was stored at -70° C.
(§4) For the binding assay the mitochondrial fraction was diluted with 50 mM Na/KPO4 buffer (pH 7.4) to give a final protein concentration of […] in 100 μl buffer. This suspension was incubated with 1 nM of ^3 H PK-11195 or ^3 H RO 5-4864 (50 μl) with or without 10/μM unlabeled PK-11195 or RO 5-4864 to assess the extent of total and non-specific binding. Different amounts of indole derivatives were added to the incubation medium in a volume of 50 μl. After incubation for 60 minutes at 4° C., samples were filtered and the radioactivity was measured in a scintillation counter.

[4] = target: T3, MBR (mitochondrial benzodiazepine recognition site); test: Displacement of ^3 H-RO5-4864 from mitochondrial BZD recognition site (MBR); type: binding, Sprague Dawley rat; conditions: displacement of 1 nM ^3 H-RO5-4864, rat mitochondria; range in parentheses
Description: as §3, §4

[5] = tested on: mitochondrial pregnenolone formation, C6-2B glioma cells; test: Pregnenolone formation in glial mitochondria (C6-2B glioma cells); type: biochemical; conditions: for Effective concentration, maximal / EC50: C6 glial cell mitochondria, 15 minutes at 37° C.; for EC50: read-out: Effective concentration, 50%; for Stimulation %: pregnenolone formation, increase over the control
Description: The mixture was preincubated for 5 minutes at 37° C. The incubation mixture was extracted with 5 ml chloroform/methanol (2:1, vol/vol), and the organic phase was evaporated to dryness. Pregnenolone was measured by a specific radioimmunoassay using an antibody obtained from Radioassay Systems Laboratories, Carson, Calif.

[6] = target: ^3 H-GABA binding (crude synaptic membrane); test: ^3 H-GABA binding, crude synaptic membranes; set-up: species or system Sprague Dawley rat; conditions: 10 nM ^3 H-GABA, rat cerebellum membranes
Description: as §1, §2

Row | Structure (SMILES) | Entries in open arms, test after 10 min injection (Sprague Dawley rats) | Entries in open arms, test after 20 min injection (Sprague Dawley rats) | Entries in open arms, test after 30 min injection (Sprague Dawley rats) | behavioral output of rats in the elevated X maze test (Sprague Dawley rats) | IC50 [1] [µM] | IC50 [2] [µM] | IC50 [3] [µM] | ^3 H-PK11195 / ^3 H-RO5-4864 [3] | IC50 [4] [µM] | binding to MBR in words ([3]; Tables I and II compared) | Effective concentration, maximal [5] | EC50 [5] [µM] | intrinsic efficacy (pregnenolone formation) ([5]; in words) | Stimulation % [5] | IC50 [6] [µM]
1 | CCCN(CCC)C(=O)C=Cc1c(-c2ccc(Cl)cc2)[nH]c2ccccc12 [compound 24] | 3 | 2 | 3 | increase the behavioral output | > 1 | > 1 | 0.7 | 1.1 | 0.6 |  |  |  |  |  | 
2 | O=C(Cc1c(-c2ccccc2)[nH]c2ccccc12)N1CCCCC1 [Compound No. 3] |  |  |  |  | > 1 |  | 0.084 | 1.4 | 0.059 |  |  |  |  |  | 
3 | CN(C)C(=O)Cc1c(-c2ccccc2)[nH]c2ccccc12 [Compound No. 7] |  |  |  |  | > 1 | > 1 | 0.6 | 1 | 0.6 | relatively high affinity | 10^-7 M | 0.01 | low intrinsic efficacy | 131% | 
4 | CCCN(CCC)C(=O)Cc1c(-c2cccs2)[nH]c2ccc(Cl)cc12 [compound 17] |  |  |  |  |  | > 1 | 0.05 | 1.3 | 0.0375 |  |  |  |  |  | 
5 | CCCN(CCC)C(=O)C(C)c1c(-c2ccc(Cl)cc2)[nH]c2ccccc12 (centres unmarked) [compound 19] | 1 |  |  | increase the behavioral output |  | > 1 | > 1 |  | > 1 |  |  |  |  |  | 
6 | CCCN(CCC)C(=O)Cc1c(-c2ccc(Br)cc2)[nH]c2ccccc12 [compound 18] | 2 |  |  | increase the behavioral output |  | > 1 | 0.075 | 2 | 0.036 |  |  |  |  |  | 
7 | CCCN(CCC)C(=O)Cc1c(-c2ccc(Cl)cc2)n(C)c2ccccc12 [compound 22] | 3 | 2 | 6 | increase the behavioral output |  | > 1 | 0.2 | 1 | 0.2 |  | 10^-8 M |  |  | 170% | 
8 | c1ccc(-c2[nH]c3ccccc3c2CC2=NCCN2)cc1 [Compound No. 15] |  |  |  |  |  | > 1 | > 1 |  | > 1 |  |  |  |  |  | 
9 | CCCN(CCC)C(=O)Cc1c(-c2cccc(Cl)c2)[nH]c2ccccc12 [compound 21] | 2 | 4 | 0 | increase the behavioral output |  | > 1 | 0.1 | 1.2 | 0.08 |  |  |  |  |  | > 1
10 | Cc1ccc(-c2[nH]c3ccc(C)cc3c2CC(=O)N(C)C)cc1 [Compound No. 9] |  |  |  |  | > 1 |  | > 1 | > 3 | 0.255 |  | > 10^-6 M |  |  | none | 
11 | CCCN(CCC)C(=O)CCc1c(-c2ccc(Cl)cc2)[nH]c2ccc(Cl)cc12 [compound 11] |  |  |  |  | > 1 | > 1 | 0.18 | 1.5 | 0.12 |  |  |  |  |  | 
12 | CCCN(CCC)C(=O)Cc1c(-c2ccc(Cl)cc2)[nH]c2ccc(Cl)cc12 [Compound No. 6] |  |  |  |  | > 1 | > 1 | 0.045 | 1.1 | 0.04 |  |  |  |  |  | 
13 | CCCN(CCC)C(=O)Cc1c2n(c3ccccc13)Cc1ccccc1-2 [Compound No. 16] |  |  |  |  |  | > 1 | 0.03 | 0.75 | 0.04 |  |  |  |  |  | 
14 | CCCN(CCC)C(=O)Cc1c(-c2cccs2)[nH]c2ccccc12 [Compound No. 10] |  |  |  |  | > 1 | > 1 | 0.024 | 1.6 | 0.0145 |  |  |  |  |  | 
15 | CCCN(CCC)C(=O)Cc1c(-c2ccc(C)cc2)[nH]c2ccc(C)cc12 [Compound No. 8] |  |  |  |  | > 1 |  | 0.0685 | 1.6 | 0.0415 |  | 10^-7 M | 0.033 |  | 220% | 
